Results from patent publication US11028087B2, “2,6-disubstituted-9-cyclopentyl-9H-purines, use thereof as medicaments, and pharmaceutical compositions” (UNIVERZITA PALACKEHO V OLOMOUCI, priority 2017, dated 2021).
Numbering of substitutions follows the chain as printed. Read-outs that look alike come from different tables or passages of the source.

Assays:
FLT3 D835 = target: T1, FLT3 D835 (Homo sapiens, UniProt P36888); assay: Kinase inhibition assay with [γ-33P]ATP; assay type: biochemical; conditions: AGLT substrate, 1 μM ATP
T1 sequence (P36888 1-993 D835Y): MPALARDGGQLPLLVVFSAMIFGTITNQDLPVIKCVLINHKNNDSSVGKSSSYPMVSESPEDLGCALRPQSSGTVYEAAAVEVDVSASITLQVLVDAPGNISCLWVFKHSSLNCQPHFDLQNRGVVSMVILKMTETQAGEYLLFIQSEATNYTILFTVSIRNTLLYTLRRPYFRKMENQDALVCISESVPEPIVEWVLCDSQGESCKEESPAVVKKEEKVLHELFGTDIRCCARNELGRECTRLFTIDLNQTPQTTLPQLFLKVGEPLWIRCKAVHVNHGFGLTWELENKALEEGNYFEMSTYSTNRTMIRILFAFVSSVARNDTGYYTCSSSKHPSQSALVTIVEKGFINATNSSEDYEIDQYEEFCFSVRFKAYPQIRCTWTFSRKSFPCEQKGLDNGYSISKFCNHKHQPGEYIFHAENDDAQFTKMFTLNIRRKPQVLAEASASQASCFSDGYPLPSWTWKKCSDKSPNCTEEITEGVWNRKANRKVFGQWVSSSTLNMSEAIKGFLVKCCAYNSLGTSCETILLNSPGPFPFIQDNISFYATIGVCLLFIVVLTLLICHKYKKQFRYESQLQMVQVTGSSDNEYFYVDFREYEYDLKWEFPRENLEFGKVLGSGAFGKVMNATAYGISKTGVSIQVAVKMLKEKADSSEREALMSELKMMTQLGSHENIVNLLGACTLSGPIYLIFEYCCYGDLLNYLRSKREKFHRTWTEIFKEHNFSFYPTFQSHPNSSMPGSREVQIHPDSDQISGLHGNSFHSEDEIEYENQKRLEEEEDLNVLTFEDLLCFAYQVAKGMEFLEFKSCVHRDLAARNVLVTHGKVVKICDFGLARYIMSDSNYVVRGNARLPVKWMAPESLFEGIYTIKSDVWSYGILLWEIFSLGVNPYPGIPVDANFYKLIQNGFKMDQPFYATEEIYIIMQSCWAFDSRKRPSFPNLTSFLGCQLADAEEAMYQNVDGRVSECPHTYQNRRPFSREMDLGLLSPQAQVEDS

FLT3-ITD = target: T2, FLT3-ITD (Homo sapiens, UniProt P36888); assay: Kinase inhibition assay with [γ-33P]ATP; assay type: biochemical
T2 sequence (P36888 1-993): T1 sequence (P36888 1-993 D835Y) with Y835D
Summary of the method: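 Radiometric [γ-33P]ATP assay in HEPES pH 7.5 with Mg2+/Mn2+: CDK1/Cyclin B (Sf9-expressed) and purchased CDK5/p35 with 1 mg/mL histone H1 at 15 and 0.15 μM ATP respectively; FLT3 WT and FLT3-ITD with AGLT substrate at 1 μM ATP. Reactions stopped with H3PO4, spotted onto phosphocellulose and washed.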

[1] = AGLT substrate, 1 μM ATP, read-out: IC50 values (μM) FLT3 ITD

| IC50 (FLT3 D835) | IC50 (FLT3-ITD; [1]) | Structure (SMILES) | IC50 (FLT3-ITD; comparative example, read-out: Influence of compounds on protein kinase inhibition, IC50 values (μM) FLT3 ITD) |
| --- | --- | --- | --- |
| 0.007 µM | 0.002 µM | NC1CCC(Nc2nc(Nc3ccc(N4CCOCC4)cc3)c3ncn(C4CCCC4)c3n2)CC1 (centres unmarked) [Compound 1] |  |
| 0.003 µM | 0.004 µM | NC1CCC(Nc2nc(Nc3ccc(CN4CCNCC4)cc3)c3ncn(C4CCCC4)c3n2)CC1 (centres unmarked) [Compound 2] |  |
| 0.003 µM | 0.007 µM | CN1CCN(C(=O)c2ccc(Nc3nc(NC4CCC(N)CC4)nc4c3ncn4C3CCCC3)cc2)CC1 (centres unmarked) [Compound 3] |  |
| 0.011 µM | 0.005 µM | CN1CC2(C1)CN(c1ccc(Nc3nc(NC4CCC(O)CC4)nc4c3ncn4C3CCCC3)cc1)C2 (centres unmarked) [Compound 7] |  |
| 0.01 µM | 0.004 µM | NCCNc1nc(Nc2ccc(CN3CCNCC3)cc2)c2ncn(C3CCCC3)c2n1 [Compound 14] |  |
| 0.011 µM | 0.002 µM | CN1CCN(C(=O)c2ccc(Nc3nc(NCCCCN)nc4c3ncn4C3CCCC3)cc2)CC1 [Compound 27] |  |
| 0.002 µM | 0.003 µM | NCCCCNc1nc(Nc2ccc(N3CC4(COC4)C3)nc2)c2ncn(C3CCCC3)c2n1 [Compound 28] |  |
| 0.005 µM | 0.003 µM | CN(C)CCNc1nc(Nc2ccc(CN3CCOCC3)nc2)c2ncn(C3CCCC3)c2n1 [Compound 172] |  |
| 0.023 µM | 0.012 µM | CN(C)CCCNc1nc(Nc2ccc(C(=O)N3CCOCC3)nc2)c2ncn(C3CCCC3)c2n1 [Compound 179] |  |
| 0.011 µM | 0.003 µM | NC1CCC(Nc2nc(Nc3ccc(N4CCCC4)cc3)c3ncn(C4CCCC4)c3n2)CC1 (centres unmarked) [Compound 263] |  |
| 0.007 µM | 0.004 µM | NCCCCNc1nc(Nc2ccc(N3CCOCC3)cc2)c2ncn(C3CCCC3)c2n1 [Compound 265] |  |
| 0.003 µM | 0.002 µM | CCN1CCN(c2ccc(Nc3nc(NCCCCN)nc4c3ncn4C3CCCC3)cc2)CC1 [Compound 266] |  |

| Structure (SMILES) | IC50 (FLT3 D835) | IC50 (FLT3-ITD; [1]) | IC50 (FLT3-ITD; comparative example, read-out: Influence of compounds on protein kinase inhibition, IC50 values (μM) FLT3 ITD) |
| --- | --- | --- | --- |
| NC1CCC(Nc2nc(Nc3ccc(CN4CCOCC4)cc3)c3ncn(C4CCCC4)c3n2)CC1 (centres unmarked) [Compound 264] | 0.009 µM | 0.001 µM | 0.001 µM |
| NCCCCNc1nc(Nc2ccc(CN3CCOCC3)cc2)c2ncn(C3CCCC3)c2n1 [Compound 270] | 0.005 µM | 0.002 µM |  |
